Results: patent publication US12109192B2, “Organic acid addition salts of S-pindolol” (ACTIMED THERAPEUTICS LTD, priority 2020, dated 2024)
In brackets after ≈: the same amount, converted by molar mass. Where two headings read alike, the source gives them in different places.

How the values were obtained:
[1] = as measured at 25° C.; for a monocarboxylic acid pKa1 is the pKa; cited from earlier work
[2] = Dynamic vapour sorption (DVS); assay type: physicochemical; conditions: for DVS mass uptake / DVS mass uptake as equivalents of water: at 90% RH, 25° C.; for solid form after DVS (XRPD): post-DVS; for hygroscopicity: DVS up to 90% RH
Experimental: Approximately 10-20 mg of sample was placed into a mesh vapour sorption balance pan and loaded into an Intrinsic dynamic vapour sorption balance by Surface Measurement Systems. The sample was subjected to a ramping profile from 40-90% relative humidity (RH) at 10% increments, maintaining the sample at each step until a stable weight had been achieved (dm/dt 0.004%, minimum step length 30 minutes, maximum step length 500 minutes) at 25° C. After completion of the sorption cycle, the sample was dried using the same procedure to 0% RH and then a second sorption cycle back to 40% RH. Two cycles were performed. The weight change during the sorption/desorption cycles were plotted, allowing for the hygroscopic nature of the sample to be determined. XRPD analysis was then carried out on any solid retained.

[3] = Thermodynamic solubility; conditions: unbuffered water, thermodynamic from solid

| SMILES | pKa1 [1] | DVS mass uptake [2] | DVS mass uptake as equivalents of water [2] | solid form after DVS (XRPD) [2] | also measured |
| --- | --- | --- | --- | --- | --- |
| O=C(O)c1cccc2ccccc12 [1-naphthoic acid] | 3.67 |  |  |  |  |
| O=C(O)c1ccc2ccccc2c1 [2-naphthoic acid] | 4.16 |  |  |  |  |
| O=C(O)[C@@H](O)c1ccccc1 [S-(+)-mandelic acid] | 3.37 |  |  |  |  |
| CC(C)NC[C@H](O)COc1cccc2[nH]ccc12.O=C(O)c1ccccc1 [S-pindolol benzoate Pattern 1, S-pindolol benzoate] |  | 0.23 wt. % | 0.05 eq. water | Pattern 1 retained, mass uptake | Thermodynamic solubility, free base concentration (pH 1.2): 29.9 mg/mL; solid form after thermodynamic solubility experiment (pH 1.2): Converted to amorphous.; Thermodynamic solubility, free base concentration (pH 4.5): 20.1 mg/mL; solid form after thermodynamic solubility experiment (pH 4.5): Converted to amorphous.; Thermodynamic solubility, free base concentration (pH 6.8): 17.4 mg/mL; solid form after thermodynamic solubility experiment (pH 6.8): Pattern 1 retained. |
| CC(C)NC[C@H](O)COc1cccc2[nH]ccc12.O=C(O)c1ccccc1 [S-pindolol benzoate Pattern 2, S-pindolol benzoate] |  |  |  | Pattern 2 retained, organic solvent | hygroscopicity [2]: non-hygroscopic; Thermodynamic solubility, free base concentration (pH 1.2): 23.5 mg/mL; solid form after thermodynamic solubility experiment (pH 1.2): Salt disproportionated.; Thermodynamic solubility, free base concentration (pH 4.5): 17.6 mg/mL; solid form after thermodynamic solubility experiment (pH 4.5): Pattern 2 retained.; Thermodynamic solubility, free base concentration (pH 6.8): 9.9 mg/mL; solid form after thermodynamic solubility experiment (pH 6.8): Pattern 2 retained. |
| CC(C)NC[C@H](O)COc1cccc2[nH]ccc12 [S-pindolol free base, (2S)-1-(1H-indol-4-yloxy)-3-(propan-2-ylamino)propan-2-ol, reference compound] |  | 0.36 wt. % | 0.05 eq. water | remained unchanged | solubility thermodynamic [3]: 1.8 mg/mL (≈ 7.25 mM); hygroscopicity [2]: slightly hygroscopic |
| CC(C)NC[C@H](O)COc1cccc2[nH]ccc12.O=C(O)CCC(=O)O [S-pindolol succinate Pattern 1, S-pindolol succinate] |  | 0.70 wt. % | 0.14 eq. water | retained |  |
| O=C(O)CCCC(=O)O [glutaric acid] | 4.34 |  |  |  |  |
| O=C(O)Cc1ccccc1 [phenylacetic acid] | 4.31 |  |  |  |  |
| Cc1ccccc1C(=O)O [toluic acid] | 4-5 |  |  |  |  |
